≈ marks a conversion by molar mass, not a printed value. Where “and” joins values, the source holds several entries; their conditions need not be identical. Equal entries are not always repeated. Where two headings read alike, the source gives them in different places.
Assays:
E. coli CFT073 (UPEC) = test: MIC, standard microdilution assay, growing UPEC; format: cell-based, Escherichia coli; conditions: E. coli
In short: (§1)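 Standard microdilution protocol, triplicate wells. For S. flexneri the growth medium is TSB. The other three strains are grown in HEPES-buffered (40 mM, pH 7.4) CA-MHB, and UPEC is also run at pH 5.5 in LPM containing 30 mM MES.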

S. aureus DSM2569 = test: MIC, standard microdilution assay, growing S. aureus; format: cell-based, Staphylococcus aureus; conditions: S. aureus; CA-MHB pH 7.4; read-out: MIC (μM) CA-MHB
In short: as §1

non-growing UPEC CFT073 = test: Dose-dependent killing analysis (CFU spot-plating) of stationary-phase UPEC; format: cell-based, Escherichia coli
In short: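 Killing assessed by CFU counts: overnight 37 °C LB agar spot plates (10 μl drops of 10-fold PBS dilutions) scored at the lowest dilution with distinct colonies. Samples were compound-treated non-growing UPEC CFT073, 200 μl per well. Performed as three biological replicates.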

[1] = tested on: intracellular S. flexneri 5a M90T in TC7 cells; test: microbe, parasite or virus in culture; format: cell-based, Shigella flexneri; conditions: TC7 cells infected with GFP-expressing S. flexneri, 14 h treatment

Structure (SMILES): CO[C@H]1/C=C/O[C@@]2(C)Oc3c(C)c(O)c4c(O)c(c(/C=N/N=C/N5CCCCC5)c(O)c4c3C2=O)NC(=O)/C(C)=C\C=C\[C@H](C)[C@H](O)[C@@H](C)[C@@H](O)[C@@H](C)[C@H](OC(C)=O)[C@@H]1C [FCE-22250]
- MIC (E. coli CFT073 (UPEC); LPM pH 5.5, read-out: MIC): 2 µM (≈ 1.67 µg/mL)
- MIC (E. coli CFT073 (UPEC); pH 7.4, 1:4 diluted CA-MHB, read-out: MIC (μM) 1:4 CA-MHB): 10 µM (≈ 8.35 µg/mL)
- MIC (μM) CA-MHB +PAβN (E. coli CFT073 (UPEC); pH 7.4, CA-MHB with 10 μg/ml efflux pump inhibitor PaβN): 4 µM (≈ 3.34 µg/mL)
- MIC (E. coli CFT073 (UPEC); pH 7.4, CA-MHB, read-out: MIC (μM) CA-MHB): 8 µM (≈ 6.68 µg/mL)
- MIC (S. aureus DSM2569): 0.0125 µM (≈ 0.0104 µg/mL)
- log10(CFU/ml) after treatment, single replicates (non-growing UPEC CFT073; E. coli in 1:4 CA-MHB (pH 7.4), concentration 0.25): 9.301 log10(CFU/ml) and 8.845 log10(CFU/ml) and 8.602 log10(CFU/ml)
- Killing: average Δlog10(CFU/ml) (non-growing UPEC CFT073; E. coli in 1:4 CA-MHB (pH 7.4), concentration 0.25, vs 8.977 before treatment): 0.061 log10(CFU/ml)
- log10(CFU/ml) after treatment, single replicates (non-growing UPEC CFT073; E. coli in 1:4 CA-MHB (pH 7.4), concentration 0.5): 9.505 log10(CFU/ml) and 9.176 log10(CFU/ml) and 8.301 log10(CFU/ml)
- Killing: average Δlog10(CFU/ml) (non-growing UPEC CFT073; E. coli in 1:4 CA-MHB (pH 7.4), concentration 0.5, vs 8.977 before treatment): -0.017 log10(CFU/ml)
- log10(CFU/ml) after treatment, single replicates (non-growing UPEC CFT073; E. coli in 1:4 CA-MHB (pH 7.4), concentration 1): 9.556 log10(CFU/ml) and 9.114 log10(CFU/ml) and 8.431 log10(CFU/ml)
- Killing: average Δlog10(CFU/ml) (non-growing UPEC CFT073; E. coli in 1:4 CA-MHB (pH 7.4), concentration 1, vs 8.977 before treatment): -0.057 log10(CFU/ml)
- log10(CFU/ml) after treatment, single replicates (non-growing UPEC CFT073; E. coli in 1:4 CA-MHB (pH 7.4), concentration 2.5): 9.415 log10(CFU/ml) and 8.954 log10(CFU/ml) and 8.342 log10(CFU/ml)
- Killing: average Δlog10(CFU/ml) (non-growing UPEC CFT073; E. coli in 1:4 CA-MHB (pH 7.4), concentration 2.5, vs 8.977 before treatment): 0.073 log10(CFU/ml)
- log10(CFU/ml) after treatment, single replicates (non-growing UPEC CFT073; E. coli in 1:4 CA-MHB (pH 7.4), concentration 5): 9.477 log10(CFU/ml) and 8.903 log10(CFU/ml) and 8.431 log10(CFU/ml)
- Killing: average Δlog10(CFU/ml) (non-growing UPEC CFT073; E. coli in 1:4 CA-MHB (pH 7.4), concentration 5, vs 8.977 before treatment): 0.040 log10(CFU/ml)
- log10(CFU/ml) after treatment, single replicates (non-growing UPEC CFT073; E. coli in 1:4 CA-MHB (pH 7.4), concentration 10): 9.519 log10(CFU/ml) and 8.845 log10(CFU/ml) and 8.778 log10(CFU/ml)
- Killing: average Δlog10(CFU/ml) (non-growing UPEC CFT073; E. coli in 1:4 CA-MHB (pH 7.4), concentration 10, vs 8.977 before treatment): -0.070 log10(CFU/ml)
- log10(CFU/ml) after treatment, single replicates (non-growing UPEC CFT073; E. coli in LPM (pH 5.5), concentration 0.25): 7.041 log10(CFU/ml) and 7.176 log10(CFU/ml) and 8.079 log10(CFU/ml)
- Killing: average Δlog10(CFU/ml) (non-growing UPEC CFT073; E. coli in LPM (pH 5.5), concentration 0.25, vs 7.350 before treatment): -0.082 log10(CFU/ml)
- log10(CFU/ml) after treatment, single replicates (non-growing UPEC CFT073; E. coli in LPM (pH 5.5), concentration 0.5): 6.845 log10(CFU/ml) and 6.778 log10(CFU/ml) and 8.000 log10(CFU/ml)
- Killing: average Δlog10(CFU/ml) (non-growing UPEC CFT073; E. coli in LPM (pH 5.5), concentration 0.5, vs 7.350 before treatment): 0.143 log10(CFU/ml)
- log10(CFU/ml) after treatment, single replicates (non-growing UPEC CFT073; E. coli in LPM (pH 5.5), concentration 1): 7.176 log10(CFU/ml) and 7.255 log10(CFU/ml) and 8.000 log10(CFU/ml)
- Killing: average Δlog10(CFU/ml) (non-growing UPEC CFT073; E. coli in LPM (pH 5.5), concentration 1, vs 7.350 before treatment): -0.127 log10(CFU/ml)
- log10(CFU/ml) after treatment, single replicates (non-growing UPEC CFT073; E. coli in LPM (pH 5.5), concentration 2.5): 6.845 log10(CFU/ml) and 6.954 log10(CFU/ml) and 7.845 log10(CFU/ml)
- Killing: average Δlog10(CFU/ml) (non-growing UPEC CFT073; E. coli in LPM (pH 5.5), concentration 2.5, vs 7.350 before treatment): 0.136 log10(CFU/ml)
- log10(CFU/ml) after treatment, single replicates (non-growing UPEC CFT073; E. coli in LPM (pH 5.5), concentration 5): 6.778 log10(CFU/ml) and 6.845 log10(CFU/ml) and 7.785 log10(CFU/ml)
- Killing: average Δlog10(CFU/ml) (non-growing UPEC CFT073; E. coli in LPM (pH 5.5), concentration 5, vs 7.350 before treatment): 0.214 log10(CFU/ml)
- log10(CFU/ml) after treatment, single replicates (non-growing UPEC CFT073; E. coli in LPM (pH 5.5), concentration 10): 6.954 log10(CFU/ml) (2×) and 7.531 log10(CFU/ml)
- Killing: average Δlog10(CFU/ml) (non-growing UPEC CFT073; E. coli in LPM (pH 5.5), concentration 10, vs 7.350 before treatment): 0.204 log10(CFU/ml)
- Fluorescence intensity (RFU), Mean, 0.0625 x MIC ([1]; 0.0625 x MIC): 8508.25 RFU
- Fluorescence intensity (RFU), Mean, 0.125 x MIC ([1]; 0.125 x MIC): 9069.58 RFU
- Fluorescence intensity (RFU), Mean, 0.25 x MIC ([1]; 0.25 x MIC): 2896.5 RFU
- Fluorescence intensity (RFU), Mean, 0.5 x MIC ([1]; 0.5 x MIC): 1857.94 RFU
- Fluorescence intensity (RFU), Mean, 2 x MIC ([1]; 2 x MIC): 1320.58 RFU
- Fluorescence intensity (RFU), Mean, 4 x MIC ([1]; 4 x MIC): 1217.94 RFU
- Fluorescence intensity (RFU), Mean, 8 x MIC ([1]; 8 x MIC): 1111.33 RFU
- Fluorescence intensity (RFU), Mean, 16 x MIC ([1]; 16 x MIC): 979.361 RFU
- Fluorescence intensity (RFU), Mean, MIC ([1]; MIC): 1487.86 RFU
